The source of these data is US4006231A, “N-aminosulfenylated derivatives of carbofuran” (priority 1974, dated 1977).

Structures are written as SMILES. Values after ≈ are worked out from the molar mass of the structure shown.

Series [1] concerns adult female houseflies. Briefly: whole plant or invertebrate. Particulars: Musca domestica, topical, 24 h, read-out: Houseflies LD50. How it is done: Toxicity of the compounds of the present invention to houseflies was tested using the technique described by March and Metcalf (Bull. Calif. State Dept. Agr. 38, No. 2, 93-101 [1949]): Solutions of test compounds in acetone were prepared at a range of concentrations. Adult female houseflies (Muscadomesticus) were treated with one drop of acetone solution, applied to the prothorax, using a syringe calibrated to deliver 1.00 ± 0.05 mm^3 drops. Twenty flies were treated at each dosage, each test compound was applied at 8 to 10 dosage levels. Each test was replicated three times. […] A one-inch square of cotton saturated with 40% sugar solution was provided for food in each carton. The cartons of flies were held in a constant temperature chamber at 60° F and 60% relative humidity for 24 hours before mortality counts were made. Flies totally unable to make crawling or walking movements were counted as dead. LD50 values were calculated in the conventional manner.

Series [2] can be described thus: Acute oral toxicity to mice. To be noted: mouse, in vivo. As to the method: Acute oral toxicity of the compounds of the present invention to mice was determined after the manner of Hollingworth, Fukuto and Metcalf (J. Agr. Food Chem. 15, 235 [ 1967]): Solutions of the compounds at each of a series of concentrations were prepared in olive oil or propylene glycol as solubility required. A dose of 0.25 ml of each solution was administered to each of four female white Swiss mice using the "bolus"-tipped syringe. […] Final mortality determinations were made 48 hours after treatment.

In series [3] the test system is larvae of Culex fatigans (mosquitoes). Briefly: Toxicity to mosquitoes, fourth-instar larvae. To be noted: Culex quinquefasciatus, 24 h, read-out: Mosquitoes LC50. As to the method: Toxicity of the compounds of the present invention to mosquitoes was tested using the technique described by Mulla, Metcalf and Geib (Mosquito News 28, No. 2, 236 [ 1966]): A 1% (w/v) stock solution was prepared by dissolving the test compound in acetone. The appropriate amount of stock solution was added with stirring to 100 ml of tap water and 20-25 fourth-instar larvae of Culex fatigans were placed in the solution. After 24 hours, the counts were taken. Larvae not able to rise to the surface on touch were counted as dead. Each concentration was run in duplicate and each material was run on two or three different days. The average percent mortality was plotted against the logarithm of the concentration (in ppm) and the LC50 value determined by inspection.

In series [4] the test system is Mexican bean beetle. Briefly: Initial contact activity, Mexican bean beetle. Type of series: in vivo. To be noted: Epilachna varivestis, 48 hours exposure, read-out: % Kill, Mexican bean beetle, Initial. How it is done:
(§1) Initial Contact Activity: One-half gram of test compound was dissolved in 40 ml of acetone and this solution was dispersed in 360 ml of water containing one drop of isooctylphenyl polyethoxyethanol. An aliquot of this solution was diluted with water to provide a solution containing 1250 ppm of active ingredient. […] At this time, the dead and living insects (or mites) were counted and the percent kill was calculated.

Series [5] has as its system two-spotted spider mite. In words: Initial contact activity, two-spotted spider mite. To be noted: Tetranychus urticae, 48 hours exposure, read-out: % Kill, two-spotted spider mite, Initial. Type of series: in vivo. How it is done:
as §1

The subject of series [6] is milkweed bug. In words: Initial contact activity, milkweed bug. It is filed as in vivo, Oncopeltus fascinatus. To be noted: Oncopeltus fasciatus, 48 hours exposure, read-out: % Kill, milkweed bug, Initial. As to the method: as §1
In series [7] the test system is granary weevil. In words: Initial contact activity, granary weevil. To be noted: Sitophilus granarius, 48 hours exposure, read-out: % Kill, granary weevil, Initial. It is filed as in vivo. How it is done: as §1
Series [8] has as its system southern army worm. In words: Initial contact activity, southern army worm. Type of series: in vivo, Prodenia eridania. To be noted: 1250 ppm, 48 hours exposure. As to the method: as §1
Series [9] deals with Mexican bean beetle. In words: Systemic insecticidal activity, soil-watering technique, Mexican bean beetle. Type of series: in vivo. Particulars: Epilachna varivestis, 48 h, 25 ml to soil, infested after 3 days, counted 2 days later, read-out: % Kill, Mexican bean beetle, systemic.
In series [10] the test system is confused flour beetle. In words: Residual contact activity (7-day), confused flour beetle. Type of series: in vivo. Particulars: Tribolium confusum, 48 h, surface aged seven days, read-out: % Kill, confused flour beetle, Residual (7-day). As to the method: as §1
(§2) Residual Contact Activity: The residual contact activity of the compounds was determined on the same organisms using the technique described above, except that in each case the treated surface was allowed to dry and was exposed to normal light and air for seven days before introduction of the mites or insects. […]

Series [11] has as its system pea aphid. Briefly: Systemic insecticidal activity, soil-watering technique, pea aphid. It is filed as in vivo, Macrosiphum pisi. To be noted: Acyrthosiphon pisum, 48 h, 25 ml to soil, infested after 3 days, counted 2 days later, read-out: % Kill, pea aphid, systemic.
Series [12] concerns two-spotted spider mite. In words: Residual contact activity (7-day), two-spotted spider mite. It is filed as in vivo. Particulars: Tetranychus urticae, 48 h, surface aged seven days, read-out: % Kill, two-spotted spider mite, Residual (7-day). How it is done:
as §1, §2

For series [13], the system named is milkweed bug. Briefly: Residual contact activity (7-day), milkweed bug. Type of series: in vivo, Oncopeltus fascinatus. Particulars: Oncopeltus fasciatus, 48 h, surface aged seven days, read-out: % Kill, milkweed bug, Residual (7-day). As to the method: as §1, §2
For series [14], the system named is southern army worm. Briefly: Systemic insecticidal activity, soil-watering technique, southern army worm. Particulars: 156 ppm, 25 ml to soil, infested after 3 days, counted 2 days later. Type of series: in vivo, Prodenia eridania.
Series [15] has as its system Mexican bean beetle. Briefly: Residual contact activity (7-day), Mexican bean beetle. It is filed as in vivo. Particulars: Epilachna varivestis, 48 h, surface aged seven days, read-out: % Kill, Mexican bean beetle, Residual (7-day). As to the method:
as §1, §2

Series [16] relates to confused flour beetle. In words: Initial contact activity, confused flour beetle. It is filed as in vivo. To be noted: Tribolium confusum, 48 hours exposure, read-out: % Kill, confused flour beetle, Initial. As to the method:
as §1

The test system of series [17] is pea aphid. Briefly: Residual contact activity (7-day), pea aphid. It is filed as in vivo, Macrosiphum pisi. Particulars: Acyrthosiphon pisum, 48 h, surface aged seven days, read-out: % Kill, pea aphid, Residual (7-day). As to the method:
as §1, §2

For series [18], the system named is granary weevil. In words: Residual contact activity (7-day), granary weevil. To be noted: Sitophilus granarius, 48 h, surface aged seven days, read-out: % Kill, granary weevil, Residual (7-day). Type of series: in vivo. As to the method: as §1, §2
The test system of series [19] is two-spotted spider mite. In words: Systemic insecticidal activity, soil-watering technique, two-spotted spider mite. To be noted: Tetranychus urticae, 48 h, 25 ml to soil, infested after 3 days, counted 2 days later, read-out: % Kill, two-spotted spider mite, systemic. Type of series: in vivo.
Series [20] has as its system plum curculio. In words: Residual contact activity (7-day), plum curculio. Type of series: in vivo. Particulars: Conotrachelus nenuphar, 48 h, surface aged seven days, read-out: % Kill, plum curculio, Residual (7-day). How it is done:
as §1, §2

For series [21], the system named is southern army worm. In words: Residual contact activity (7-day), southern army worm. Type of series: in vivo, Prodenia eridania. Particulars: 1250 ppm, surface aged seven days; 2880 min. As to the method: as §1, §2
For series [22], the system named is plum curculio. Briefly: Initial contact activity, plum curculio. Type of series: in vivo. Particulars: Conotrachelus nenuphar, 48 hours exposure, read-out: % Kill, plum curculio, Initial. How it is done:
as §1

Series [23] deals with pea aphid. In words: Initial contact activity, pea aphid. Particulars: Acyrthosiphon pisum, 48 hours exposure, read-out: % Kill, pea aphid, Initial. Type of series: in vivo, Macrosiphum pisi. As to the method:
as §1

Broadly, the LD50 is the dose at which mortality reaches 50%. The term LC50 denotes the concentration that kills 50% of the test population. `CNC(=O)Oc1cccc2c1OC(C)(C)C2` [Carbofuran, 2,3-dihydro-2,2-dimethyl-7-benzofuranyl methylcarbamate]: the LD50 in [1] is approximately 6.7 mg/kg. In [2], this molecule registered an LD50 at 48 h of approximately 2 mg/kg. Also, the LC50 in series [3] turned out to be 0.052 µg/mL (≈ 0.235 µM).

Turning to `CN(C)SN(C)C(=O)Oc1cccc2c1OC(C)(C)C2` [I, 2,3-Dihydro-2,2-dimethyl-7-benzofuranyl (Dimethylaminosulfenyl) (methyl)carbamate], the mortality at 1250 ppm worked out at 100% in series [4]; 100% in [5]; 100% in [6]; 100% in [7]; 0% in series [10]; 3% in series [12]. Further, the mortality at 1250 ppm worked out at 100% in [13]; 95% in [15]; 100% in [16]; 95% in series [17]; 63% in series [18]; 5% in series [20]. Further, the mortality at 1250 ppm in series [22] and in series [23] was 100% throughout. Moreover, in [1], the LD50 is approximately 15 mg/kg. In series [2], the LD50 at 48 h was in the range of 10 to 20 mg/kg. For the same molecule, in series [8], the “% Kill, southern army worm, Initial” value is 100%. Further, the mortality at 156 ppm in series [9] came to 100%; in series [11], 100%; in [19] it was 73%. Moreover, the LC50 in series [3] was found to be 0.027 µg/mL (≈ 0.0911 µM). The “% Kill, southern army worm, systemic” value in [14] is on record as 100%. Moreover, the “% Kill, southern army worm, Residual (7-day)” value in [21] is given as 80%.

`CN(SN1CCOCC1)C(=O)Oc1cccc2c1OC(C)(C)C2` [II, 2,3-Dihydro-2,2-dimethyl-7-benzofuranyl (Methyl)(morpholinosulfenyl)carbamate]: the mortality at 1250 ppm in [4] came out at 100%; in series [5], 97%; in [6], 100%; in [7], 100%; in series [10], 0%; in series [12] it was 4%. The mortality at 1250 ppm in series [13], in series [15], in series [16], in [17], in [18] and in series [20] was 100% each time. Moreover, the mortality at 1250 ppm in series [22] and in series [23] was 100% each time. Besides, in series [1], the LD50 is approximately 10.5 mg/kg. This molecule also gave an LD50 at 48 h in [2] of 10 to 20 mg/kg. Besides, in series [8], the “% Kill, southern army worm, Initial” value stood at 100%. For the same molecule, the mortality at 156 ppm turned out to be 100% in series [9], 100% in series [11] and 76% in [19]. Besides, the LC50 in series [3] was determined as 0.048 µg/mL (≈ 0.142 µM). The “% Kill, southern army worm, systemic” value in series [14] came out at 100%. The “% Kill, southern army worm, Residual (7-day)” value in series [21] was 83%.
